For one compound, Ki results are on record in PMC5035018, “Arachidonic Acid Metabolite 19(S)-HETE Induces Vasorelaxation and Platelet Inhibition by Activating Prostacyclin (IP) Receptor” (PLoS ONE, 2016).

This assay addresses T1, prostacyclin (IP) receptor (Homo sapiens, UniProt P43119).
T1 construct: gene PTGIR; human IP receptor cDNA expressed in COS-1 cells
As to the kind of experiment: [3H]-iloprost competition radioligand binding on transfected COS-1 cells (also cAMP EC50 […]). Type of assay: cell-based.

SMILES strings stand for the structures.

T1 sequence (P43119 1-383): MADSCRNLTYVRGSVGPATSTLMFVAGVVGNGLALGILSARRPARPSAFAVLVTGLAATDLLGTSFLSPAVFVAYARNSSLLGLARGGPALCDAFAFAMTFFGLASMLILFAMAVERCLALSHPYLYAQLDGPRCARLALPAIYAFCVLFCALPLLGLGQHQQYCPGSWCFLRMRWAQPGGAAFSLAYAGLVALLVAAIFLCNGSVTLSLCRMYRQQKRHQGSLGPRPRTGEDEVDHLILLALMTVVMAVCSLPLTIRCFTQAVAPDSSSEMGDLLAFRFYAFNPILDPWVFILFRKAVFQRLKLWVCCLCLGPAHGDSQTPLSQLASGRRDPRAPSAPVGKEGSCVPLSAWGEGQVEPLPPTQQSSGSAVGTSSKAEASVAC

Compound `C[C@H](O)CCC/C=C\C/C=C\C/C=C\C/C=C\CCCC(=O)O` [19(S)-HETE, 19(S)-hydroxy-5Z,8Z,11Z,14Z-eicosatetraenoic acid] came in with a Ki of 660 nM.

The Ki is the dissociation constant of the complex between target and ligand, obtained from inhibition or displacement.
